Bridge positions count the residues as written; N and C are the ends. Square brackets hold non-standard residues; d marks the D form. Peptide text beside a SMILES is read from it. * marks the point of attachment. Biotin = O=C1N[C@H]2[C@H](CS[C@H]2CCCCC(=O)*)N1; Tyr(3-I) = N[C@@H](Cc1ccc(O)c(I)c1)C(=O)O
What was measured:
SRIF receptor [1] = assay: Tracing of SRIF R:L complex with [125I]Bio-S28: membrane binding and deoxycholate:lysolecithin solubilization; design: species or system rat
Procedure: 1. Binding of biotinyl-SRIF to GH4 C1 membranes. The binding step is carried out as described in Section 4 of "Receptor Binding Methods". Incubations are for 1 hour at room temperature. In the standard purification protocol, the binding incubations contain 10 nM Bio-S29/ [^125 I]Bio-S28 is added as a tracer at levels of 5,000-100,000 cpm per mg of membrane protein. Control incubations contain 10 uM cold S14 to saturate the receptor with non-biotinylated ligand.
2. Solubilization of receptor:ligand complex. This is done as described ("Membrane Solubilization"), with 0.15% deoxycholate:lysolecithin in solubilization buffer containing 0.2 mM MgCl2, to obtain 100,000×g supernatants containing solubilized R:L complex.
(§1) A preparation of SRIF receptor is purified from 17 mg GH4 C1 pituitary cell membranes as described in "Methods: Receptor Purification". Some important features of this experiment are as follows: Two 17 mg samples of membranes are used. Both are incubated with 10^-8 M Bio-S28. However, one sample also receives 10^-5 M non-biotinyl S14 for 2-3 minutes before addition of any Bio-S28. This serves to block binding of Bio-S28 and creates a control to show non-specific binding of proteins to the streptavidin column. Also, each sample receives 1.5×10^8 cpm of [^125 I]Bio-S28 as a tracer. This is added 2-3 minutes before the addition of cold Bio-S28. After a 1-hour binding step, the membranes are washed in binding buffer without BSA and solubilized in solubilization buffer containing 0.15% deoxycholate:lysolecithin and 0.2 mM MgCl2. Each 100,000×g supernatant (17 ml) is incubated with 0.6 ml of streptavidin-agarose for 4 hours at 4°-10° C. The SA-agarose is transferred to a 0.7 cm diameter column, washed and eluted with EDTA/EGTA/GTP-gamma-S as described ("Methods: Receptor Purification").
(§2) Radioligand is followed through the procedure to estimate solubilization of R:L complex and % initial binding of R:L complex to immobilized streptavidin.

Immobilized Streptavidin [2] = biological target: T1, Immobilized Streptavidin (Streptomyces avidinii, UniProt P22629); assay: Tracing of SRIF R:L complex with [125I]Bio-S28: adsorption to streptavidin-agarose during purification; type: binding
T1 construct: purchased Pierce Chemical Co
T1 sequence (P22629 25-183): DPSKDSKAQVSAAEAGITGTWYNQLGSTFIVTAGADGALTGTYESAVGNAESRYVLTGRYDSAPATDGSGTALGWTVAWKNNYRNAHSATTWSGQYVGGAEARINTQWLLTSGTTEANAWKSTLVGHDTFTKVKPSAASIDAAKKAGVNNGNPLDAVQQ
Procedure: 3. Adsorption of solubilized R:L complex to streptavidin. Immobilized streptavidin (streptavidin cross-linked to 6% beaded agarose, Pierce Chemical Co.; "SA-agarose") is washed in solubilization buffer and added to the solubilized membranes as 1/30 of the final volume. This mixture is incubated with constant stirring by end-over-end rotation for 4-5 hours at 4°-10° C. Then the mixture is applied to a column and the non-bound material is washed through. Binding of radioligand to SA-agarose is determined by comparing cpm in the 100,000×g supernatant with that in the column effluent after adsorption to SA-agarose. Finally, the column is washed with 12-15 column volumes of solubilization buffer+0.15% deoxycholate:lysolecithin +1/500 (vol/vol) 100×4pase.
as §1, §2
As discussed above, this should approximate the binding of R:L complex to streptavidin.

SRIF receptor [3] = assay: Scatchard analysis of binding of [125I]-labelled SRIF analogs to GH4 C1 membranes; design: species or system rat; conditions: GH4 C1 membranes (FIG. 2), read-out: dissociation constant (KD)
Procedure: 1. Standard Binding Assays--Binding assays are done in a binding buffer containing 50 mM HEPES (pH 7.4), 0.5% BSA and 5 mM MgCl2. The standard assay for [^125 I]SRIF analog binding to GH4 C1 membranes, done in 96 well microtiter plates (Dynataech Immulon II Removawell plates), is carried out as follows: 1. Radioligand is diluted in binding buffer+ PMSF/Baci to the desired cpm per vol. of 50 μl and then 50 μl aliquots are added to the wells. For non-specific binding samples, 5 μl of 40 μM cold S14 is also added per well. 2. Binding is initiated by adding 150 μl per well of membrane diluted to the desired concentration (10-30 ug membrane protein/well) in binding buffer+ PMSF/Baci. Plates are then covered with Linbro mylar plate sealers (Flow Labs) and placed on a Dynatech Microshaker II and binding is allowed to proceed at room temperature for 1-2 hours. Binding is stopped by centrifuging the plate for 15 minutes at 2,000×g. The supernatants are dumped off and membrane pellets washed once by addition of 200 μl of ice cold binding buffer, brief shaking and recentrifugation. Finally the individual wells are placed in 12×75 mm tubes and counted in an LKB Gammamaster counter (78% efficiency). Specific binding by this method is identical to that measured when free ligand is removed by rapid (3-5 seconds) filtration and washing on polyethyleneimine-coated glass fiber filters.
Because Bio-C6-S14, Bio-C12-S14 and Bio-S28 all contain tyrosine residues, it is possible to prepare their [^125 I] labelled analogs and carry out Scatchard analyses of their binding affinities relative to [^125 I]Tyr11-S14 (FIG. 2). As shown in the figure, the [^125 I]-labelled peptides fall in the same order of potency as their non-labelled forms. The dissociation constants (KDs) and relative binding affinities are [^125 I]Tyr11-S14 (0.1 nM)>[^125 I]Bio-S28 (0.2 nM)>[^125I]Bio-6C-S14 (0.3 nM)>[^125 I]Bio-12C-S14 (0.4 nM).

SRIF receptor [4] = assay: Binding of [125I]Bio-SRIF analogs to GH4 C1 membranes (CPM bound); design: species or system rat
Procedure: 3. Chemical cross-linking of radioligand with receptor is done after a binding step identical to the standard assay. However, the wash step is done with binding buffer minus BSA to reduce the possibility of non-specific cross-linking of radioligand with BSA. The cross-linking step is carried out as described below.
(§3) To compare the three biotinyl-SRIF analogs in terms of binding to streptavidin, the following experiment is done. [^125 I]Bio-SRIF analogs are bound to GH4 C1 membranes as described ("Methods: Receptor Binding Methods, 3"). All radioligands are at a concentration of […] cpm/ml. For each radioligand, a control for non-specific binding was done in the presence of 1 uM cold S14. CPM bound/mg membrane protein after the binding step are as follows: [^125 I]Bio-6C-S14=755,020 (total) and 43,361 (non-specific); [^125 I]Bio-12C=S14=633,134 (total) and 39,538 (nonspecific); [^125 I]Bio-S28=1,065,512 (total) and 35,049 (nonspecific). The membrane pellets are solubilized in solubilization buffer containing 0.15% deoxycholate:lysolecithin and 0.2 mM MgCl2 as described ("Methods: Membrane Solubilization"). […] One ml samples of solubilized membranes are incubated with 0.05 ml vols of streptavidin-agarose at 4°-10° C. on a tube rotator for the times shown. Non-specific binding samples are not done due to the low levels of non-specific binding. At the times shown, the […] beads are spun down and 100 ul samples of supernatant are counted. The cpm are compared to initial cpm in the sample and % binding to SA is calculated from this. Also, it should be noted that binding of cpm from the supernatant is considered to parallel the binding of R:L complex. Several observations confirm that this is a valid assumption.

Immobilized Streptavidin [5] = biological target: T1, Immobilized Streptavidin; assay: Binding of [125I]-labelled biotinyl-SRIFs (solubilized R:L complex) to immobilized streptavidin
Procedure: as §3

SRIF receptor [6] = conditions: pituitary cells; Kirk et al. 1984; cited from earlier work
[7] = 10^-8 M Bio-S28 + 10^-5 M S14 (NSB)

Row | Compound | CPM Solubilized by Deoxycholate:Lysolecithin (%) (SRIF receptor [1]; 10^-8 M Bio-S28) | CPM Initially Bound to Membranes (SRIF receptor [1]; [7]) | CPM Solubilized by Deoxycholate:Lysolecithin (%) (SRIF receptor [1]; [7]) | CPM Initially Bound to Membranes (SRIF receptor [1]; ligand in binding step 10^-8 M Bio-S28) | Solubilized CPM Non-Bound to Streptavidin (%) (Immobilized Streptavidin [2]; 10^-8 M Bio-S28) | Solubilized CPM Non-Bound to Streptavidin (%) (Immobilized Streptavidin [2]; [7]) | specifically bound radioligand bound to streptavidin (Immobilized Streptavidin [2]; calculation from Table 2) | Kd (SRIF receptor [3]) | CPM bound/mg membrane protein (total) (SRIF receptor [4]; after the binding step, total) | CPM bound/mg membrane protein (non-specific) (SRIF receptor [4]; in the presence of 1 uM cold S14) | Initial CPM (Immobilized Streptavidin [5]; 100 ul of initial 100,000 x g supernatant containing soluble R:L complex) | CPM (non-bound), 1 hour (Immobilized Streptavidin [5]; 100 ul supernatant after 1 hour incubation with SA-agarose, 4-10 C) | CPM (non-bound), 3 hours (Immobilized Streptavidin [5]; 100 ul supernatant after 3 hours incubation with SA-agarose, 4-10 C) | % Binding of Radioligand to SA-Agarose, 1 hour, % Bound (Immobilized Streptavidin [5]; 1 hour incubation with SA-agarose) | % Binding of Radioligand to SA-Agarose, 3 hours, % Bound (Immobilized Streptavidin [5]; 3 hours incubation with SA-agarose) | decrease of binding of [125I]Tyr1-SRIF (SRIF receptor [6])
1 | CC(C)C[C@H](NC(=O)[C@H](C)NC(=O)[C@@H]1CCCN1C(=O)[C@H](CC(N)=O)NC(=O)[C@H](CO)NC(=O)[C@H](CC(N)=O)NC(=O)[C@H](C)NC(=O)[C@H](CO)NC(=O)CCCC[C@@H]1SC[C@@H]2NC(=O)N[C@@H]21)C(=O)N[C@@H](C)C(=O)N1CCC[C@H]1C(=O)N[C@@H](CCCNC(=N)N)C(=O)N[C@@H](CCC(=O)O)C(=O)N[C@@H](CCCNC(=N)N)C(=O)N[C@@H](CCCCN)C(=O)N[C@@H](C)C(=O)NCC(=O)N[C@H]1CSSC[C@@H](C(=O)O)NC(=O)[C@H](CO)NC(=O)[C@H]([C@@H](C)O)NC(=O)[C@H](Cc2ccc(O)c(I)c2)NC(=O)[C@H]([C@@H](C)O)NC(=O)[C@H](CCCCN)NC(=O)[C@@H](Cc2c[nH]c3ccccc23)NC(=O)[C@H](Cc2ccccc2)NC(=O)[C@H](Cc2ccccc2)NC(=O)[C@H](CC(N)=O)NC(=O)[C@H](CCCCN)NC1=O [[^125 I]Bio-S28] (Biotin-SANSNPALAPRERKAGCKNFF[dW]KT[Tyr(3-I)]TSC-OH; disulfide 17-28) | 91% | 9,316 CPM | 73% | 59,132 CPM | 28% | 15% | 72% | 200 pM | 1,065,512 CPM bound/mg membrane protein | 35,049 CPM bound/mg membrane protein | 92,534 CPM | 31,645 CPM | 17,098 CPM | 66% | 82% | –
2 | pertussis toxin | – | – | – | – | – | – | – | – | – | – | – | – | – | – | – | more than 95%

From patent US5331094A, “Purified active somatostatin receptor” (American Cyanamid Company, priority 1992, dated 1994)
